Data reported in patent publication US20250034620A1 (priority 2022, published 2025).
Several values for one entry are separate records, joined by “and”; a condition that tells them apart may be missing. Identical values can stand only once.

Biological target: H.c.LSU group II intron
Format: biochemical, Histoplasma capsulatum
Conditions: logistic fit of kobs against 14 inhibitor concentrations, 5 nM to 300 μM; MB18 readout; 37° C.; read-out: KI (inhibition constant) of the self-splicing reaction

## O=C1c2c(O)ccc(O)c2C(=O)c2c(NCCNCCO)ccc(NCCNCCO)c21 [mitoxantrone]
  Ki: 1790 nM and 2240 nM
